{"source": "patent US4213968A", "about": "“Enkephalin derivatives” (priority 1978, dated 1980)", "origin": "cited, not measured here", "key": {"[1]": {"test_system": "opiate activity"}, "[2]": {"test_system": "brain opiate receptor sites"}, "[3]": {"test_system": "analgesia in the rat", "details": "injected directly into the brain of the rat"}}, "data": [{"substance": "H-Tyr-Gly-Gly-Phe-Met-OH [methionine enkephalin]", "values": [{"measurement": "activity in bioassays for opiate activity", "setting": "[1]", "result": "very active"}, {"measurement": "binding to partially purified brain opiate receptor sites", "setting": "[2]", "result": "binds stereospecifically"}, {"measurement": "analgesic activity", "setting": "[3]", "result": "weak analgesic activity of short duration"}]}]}
